# From US20240188613A1, “SWEETENER COMPOSITIONS COMPRISING MOGROSIDES AND USES THEREOF” (Firmenich Incorporated, priority 2021, published 2024)
# Assays:
# Type in all cases: in vivo, human
# [1] = Additional sensory testing for vanilla milk (panel of flavorists); details: 400 ppm mogrosides, 0 to 10 scale, letter in parentheses = Duncan's test group
# Method: A panel of flavorists at three locations evaluated vanilla milk containing various mogrosides at a concentration of 400 ppm mogrosides for in-mouth attributes (peak sweetness, upfront sweetness, bitterness, and mouthfeel/thickness) and aftertaste attributes (sweet taste linger), on a 0 to 10 scale. The in-mouth attributes were evaluated while holding the sample in the mouth, while the aftertaste attributes were evaluated after expectoration. The data was analyzed using Duncan's new multiple range test and the scores are provided in the data below in parentheses.
# [2] = Sensory testing for lemon-lime carbonated soft drink (panel of volunteers)
# Method: (§1) A panel of volunteers evaluated isomogroside IVE for in-mouth attributes (sweetness, delayed sweetness, sourness, bitterness, global flavor intensity, thickness/body, and astringence) and aftertaste (AT) attribtues (lingering sweetness, overall off-taste intensity, licorice off-tast, bitterness off-taste, and mouth coating) on a 10-point scale. Two replicate sessions were conducted, with a 20 minute break between sessions. There was a 90 second delay between samples within a session. Panelists evaluated all samples in a first session and evaluated the samples again a second time in a second session. Control samples of Rebaudioside M (Reb M) were evaluated during all sessions as a control. Mogroside V was also evaluated and sensory data for mogroside V is provided.
# (§2) Data analysis was performed using 2-way analysis of variance (ANOVA) with interaction using Tukey's HSD test. The data was normalized for each attribute according to average scores for Reb M.
# A panel of volunteers evaluated the isomogroside IVE-containing lemon-lime carbonated soft drink for in-mouth attributes and aftertaste attributes according to the methods described in Example 1 above.
# [3] = Expert panelists' comparison of mogrosides with Stevia; details: "Examples 4 and 5", in words
# [4] = Sensory testing for apple drink (panel of volunteers); details: for Bitterness / Delayed Sweetness / Global Flavor Intensity / Sweetness / Thickness/Body: in-mouth, normalized to Reb M
# Method: as §1, §2
# [5] = Sensory testing for sparkling orange beverage (panel of volunteers)
# Method: as §1, §2
# A panel of volunteers evaluated a sparkling orange beverage containing isomogroside IVE for in-mouth attributes and aftertaste attributes according to the methods described in Example 1 above.
# [6] = Sensory testing for vanilla milk (panel of volunteers); details: for Licorice Aftertaste / Lingering Sweetness / Mouth Coating / Overall Off-Taste: aftertaste
# Method: as §1, §2
# A panel of volunteers evaluated vanilla milk containing isomogroside IVE for in-mouth attributes and aftertaste attributes according to the methods described in Example 1 above.
# [7] = Additional sensory testing for lemon-flavored (lemon-lime) beverage (panel of flavorists); details: 600 ppm mogrosides, 0 to 10 scale, letter in parentheses = Duncan's test group
# Method: A panel of flavorists at three locations evaluated lemon-lime beverage various mogrosides at a concentration of 600 ppm mogrosides for in-mouth attributes (peak sweetness, upfront sweetness, bitterness, and mouthfeel/thickness) and aftertaste attributes (sweet taste linger), on a 0 to 10 scale. The in-mouth attributes were evaluated while holding the sample in the mouth, while the aftertaste attributes were evaluated after expectoration.
# [8] = 600 ppm (mogroside V 600 mg [sic]), aftertaste, 10-point scale, normalized
# [9] = 600 ppm (mogroside V 600 mg [sic]), in-mouth, 10-point scale, normalized
# [10] = 250 ppm (mogroside V 250 mg [sic]), aftertaste, 10-point scale
# [11] = 250 ppm (mogroside V 250 mg [sic]), 10-point scale
# [12] = 500 ppm (mogroside V 500 mg [sic]), aftertaste, 10-point scale
# [13] = 500 ppm (mogroside V 500 mg [sic]), 10-point scale
# [14] = same concentration of Reb M, in words
# [15] = 250 ppm (mogroside V 250 mg [sic]), aftertaste, 10-point scale, normalized
# [16] = 250 ppm (mogroside V 250 mg [sic]), in-mouth, 10-point scale, normalized
# [17] = 200 ppm (mogroside V 200 mg [sic]), 10-point scale, normalized
# [18] = 200 ppm (mogroside V 200 mg [sic]), in-mouth, 10-point scale, normalized
# [19] = 400 ppm (mogroside V 400 mg [sic]), 10-point scale, normalized
# [20] = 400 ppm (mogroside V 400 mg [sic]), in-mouth, 10-point scale, normalized
smiles,measurement,setting,value
C[C@H](CC[C@@H](O[C@@H]1O[C@H](CO)[C@@H](O)[C@H](O)[C@H]1O[C@@H]1O[C@H](CO)[C@@H](O)[C@H](O)[C@H]1O)C(C)(C)O)[C@@]1(C)CC[C@@]2(C)[C@@H]3CC=C4[C@@H](CC[C@H](O[C@@H]5O[C@H](CO)[C@@H](O[C@@H]6O[C@H](CO)[C@@H](O)[C@H](O)[C@H]6O)[C@H](O)[C@H]5O)C4(C)C)[C@]3(C)[C@H](O)C[C@@]21C [isomogroside IVE],Sweet Linger,[1]; aftertaste after expectoration,4.563 (b)
same,Bitterness,[1]; in-mouth,1.313 (ab)
same,Mouthfeel/Thickness,[1]; in-mouth,4.125 (b)
same,Peak Sweetness,[1]; in-mouth,5.938 (c)
same,Upfront Sweetness,[1]; in-mouth,5.125 (b)
same,Bitterness Aftertaste,[2]; [8],1.8
same,Licorice Aftertaste,[2]; [8],2.9
same,Lingering Sweetness,[2]; [8],4.2
same,Overall Off-Taste,[2]; [8],3.8
same,Bitterness,[2]; [9],2.2
same,Delayed Sweetness,[2]; [9],3.5
same,Global Flavor Intensity,[2]; [9],5.0
same,Sweetness,[2]; [9],5.0
same,Sweetness compared with Reb M,"[2]; 600 ppm, in words",overall lower sweetness
same,Global flavor intensity compared with mogroside V,[2]; in words,higher global flavor intensity
same,Sweetness compared with mogroside V,[2]; in words,comparable sweetness
same,Bitter aftertaste compared with Stevia,[3],lower bitter aftertaste
same,Licorice aftertaste compared with Stevia,[3],lower licorice aftertaste
same,Mouthfeel compared with Stevia,[3],better mouthfeel
same,Bitterness Aftertaste,[4]; [10],1.5
same,Licorice Aftertaste,[4]; [10],2.4
same,Lingering Sweetness,[4]; [10],3.0
same,Overall Off-Taste,[4]; [10],3.2
same,Bitterness,[4]; [11],1.4
same,Delayed Sweetness,[4]; [11],2.1
same,Global Flavor Intensity,[4]; [11],3.3
same,Sweetness,[4]; [11],3.9
same,Thickness/Body,[4]; [11],1.6
same,Licorice Aftertaste,[4]; [12],2.2
same,Lingering Sweetness,[4]; [12],3.4
same,Mouth Coating,[4]; [12],2.0
same,Overall Off-Taste,[4]; [12],3.1
same,Bitterness,[4]; [13],1.9
same,Delayed Sweetness,[4]; [13],2.6
same,Global Flavor Intensity,[4]; [13],3.5
same,Sweetness,[4]; [13],4.5
same,Thickness/Body,[4]; [13],1.6
same,Overall off-taste compared with mogroside V,"[4]; aftertaste, in words",lower overall off-taste
same,Lingering sweetness aftertaste compared with Reb M,"[4]; at both 250 ppm and 500 ppm, in words",significantly improved
same,Bitterness compared with mogroside V,[4]; in words,lower bitterness
same,Global flavor intensity compared with mogroside V,[4]; in words,higher
same,Sweetness compared with mogroside V,[4]; in words,higher sweetness
same,Thickness/body compared with mogroside V,[4]; in words,higher thickness/body
same,Global flavor intensity compared with Reb M,[4]; [14],lower global flavor intensity
same,Sweetness compared with Reb M,[4]; [14],somewhat less sweet
same,Licorice Aftertaste,[5]; [15],2.1
same,Lingering Sweetness,[5]; [15],3.9
same,Mouth Coating,[5]; [15],1.9
same,Overall Off-Taste,[5]; [15],3.3
same,Delayed Sweetness,[5]; [16],3.5
same,Sweetness,[5]; [16],4.9
same,Delayed sweetness compared with Reb M,"[5]; 250 ppm, in words",slightly increased delayed sweetness
same,Sweetness compared with Reb M,"[5]; 250 ppm, in words",overall lower sweetness
same,Licorice Aftertaste,[6]; [17],0.8
same,Lingering Sweetness,[6]; [17],2.6
same,Mouth Coating,[6]; [17],2.9
same,Overall Off-Taste,[6]; [17],2.1
same,Astringence,[6]; [18],0.5
same,Delayed Sweetness,[6]; [18],1.7
same,Fattiness,[6]; [18],2.9
same,Sourness,[6]; [18],0.5
same,Sweetness,[6]; [18],5.1
same,Licorice Aftertaste,[6]; [19],1.4
same,Lingering Sweetness,[6]; [19],3.7
same,Mouth Coating,[6]; [19],0.9
same,Overall Off-Taste,[6]; [19],2.0
same,Astringence,[6]; [20],0.7
same,Bitterness,[6]; [20],1.0
same,Delayed Sweetness,[6]; [20],2.5
same,Fattiness,[6]; [20],3.9
same,Global Flavor Intensity,[6]; [20],4.6
same,Sourness,[6]; [20],0.8
same,Sweetness,[6]; [20],6.8
same,Bitterness compared with mogroside V,"[6]; at 400 ppm, in words",lower bitterness
same,Fattiness compared with mogroside V,"[6]; at 400 ppm, in words",higher
same,Global flavor intensity compared with mogroside V,"[6]; at 400 ppm, in words",higher
same,Sweetness compared with Reb M,"[6]; at both 200 ppm and 400 ppm, in words",increased sweetness
same,Sweetness compared with mogroside V,[6]; in words,higher sweetness
same,Sweet Linger,[7]; aftertaste after expectoration,3.429 (c)
same,Bitterness,[7]; in-mouth,1.857 (a)
same,Mouthfeel/Thickness,[7]; in-mouth,2.714 (b)
same,Peak Sweetness,[7]; in-mouth,4.857 (c)
same,Upfront Sweetness,[7]; in-mouth,3.571 (b)
